{"source": "patent US12594283B2", "about": "(The Medical College of Wisconsin, Inc., priority 2019, dated 2026)", "key": {"[1]": {"tested_on": "MiaPaCa-2 and A549 cells", "assay": "Cellular uptake by LC-MS/MS", "format": "cell-based, human", "details": "Mito10-ATO 0.1 and 1 μM, ATO 1-10 μM; 1, 2, 4 and 24 h", "description": "The compounds were extracted according to the published experimental protocol.^11,12 Briefly, cells were washed twice with ice-cold DPBS (Dulbecco's Phosphate Buffered Saline) and harvested. The cell pellet was immediately frozen in liquid nitrogen and stored at −80° C. For the extraction, the pellet was homogenized in 200 μl DPBS (2 μl were taken for protein assay) and extracted twice with a dichloromethane:methanol (2:1) mixture. The organic layers were combined and dried using a SpeedVac concentrator (Thermo Fisher Scientific, Waltham MA). The dry residue was dissolved in ice-cold methanol and taken for LC-MS/MS analysis. LC-MS/MS analyses were performed using a Kinetex Phenyl-Hexyl column (50 mm×2.1 mm, 1.7 μm; Phenomenex, Torrance, CA) equilibrated with a water:acetonitrile mixture (4:1) containing 0.1% formic acid. Compounds were eluted by increasing the content of acetonitrile from 20% to 100% over 4 min and detected using the MRM (multiple reaction monitoring) mode."}, "[2]": {"target": "T1, mitochondrial complex III (Homo sapiens, UniProt P00156+P47985)", "T1 construct": "endogenous in cells; host or cells: MiaPaCa-2", "assay": "Mitochondrial complex III-driven oxygen consumption rate (Seahorse XF96) in permeabilized MiaPaCa-2 cells", "format": "cell-based", "details": "24 h treatment", "description": "FIG. 2. Effects of Mito-ATO analogs on the oxygen consumption induced by mitochondrial complexes I and III. […] MiaPaCa-2 cells were treated with Mito-ATO for 24 h. Relative complex I (1.5 mM malate, 10 mM pyruvate, 10 mM ADP)-driven OCR (left) and relative complex III (0.5 mM duroquinol, 10 mM ADP)-driven OCR (right) were monitored by XF-96 analyser. Either Rot (complex I inhibitor) or antimycin A (AA, complex III inhibitor) was acutely added and OCR assayed immediately. […] Dashed lines represent the fitting curves used for determination of the IC50 values. (n.a., not applicable).\nThe mitochondrial complex activities were assessed by measuring the oxygen consumption rate (OCR) using the Seahorse technique.^6,11-4 MiaPaCa-2 cells were treated separately with Mito-ATO analogs at different concentrations for 24 h and OCR was measured.\nMitochondrial bioenergetic function was measured in real time using the Seahorse XF 96 Extracellular Flux Analyzer (Agilent, North Billerica, MA).^11-13,22 The OCR-based assessment of mitochondrial complex activities was carried out on acutely permeabilized cells in the presence of different mitochondrial substrates, i.e., pyruvate/malate, for complex I and duroquinol for complex III.^11,14,31,32 Rot, malonate, and antimycin A (Sigma-Aldrich, St. Louis, MO) were used as specific inhibitors of mitochondrial complexes I, II, and III, respectively. Briefly, cells that were intact after treatments were immediately permeabilized using the Seahorse XF Plasma Membrane Permeabilizer (Agilent). The mitochondrial complex I-driven OCR was assayed in mannitol and sucrose buffer^31 containing 10 mM pyruvate and 1.5 mM malate (substrates for complex I) and 10 mM malonate (which inhibits complex II activities). The mitochondrial complex III-driven OCR was assayed in mannitol and sucrose buffer containing 0.5 mM duroquinol (substrate for complex III) and 1 μM Rot and 10 mM malonate (which inhibit both complex I and II activities). The mitochondrial complex-dependent oxygen consumption (calculated as Rot- or antimycin A-inhibitable OCR equals basal OCR less OCR after Rot or antimycin A injection) was plotted against concentrations to determine the IC50 values."}, "[3]": {"tested_on": "MDA-MB-231 human breast cancer cells", "assay": "MDA-MB-231 cell proliferation, IncuCyte", "format": "cell-based", "details": "MDA-MB-231 cells", "description": "FIG. 3. […] Cell proliferation was monitored in real-time with the continuous presence of indicated treatments until the end of each experiment. The cell confluence (as control groups reach 98% confluency) is plotted against concentration. Dashed lines represent the fitting curves used to determine the IC50 values as indicated.\nThe IncuCyte Live-Cell Imaging system (IncuCyte Essen Bioscience Inc., Ann Arbor, MI) was used to monitor cell proliferation.^11-13 As shown in previous publications,^11,12 this imaging system is probe-free and noninvasive, and enables continuous monitoring of cell confluence over several days. The increase in the percentage of cell confluence was used as a surrogate marker of cell proliferation. In a 96-well plate, cells were plated at 1,000 cells per well in triplicates and left to adhere overnight."}}}
{"smiles": "O=C1C(OCCCCCCCCCC[P+](c2ccccc2)(c2ccccc2)c2ccccc2)=C([C@H]2CC[C@H](c3ccc(Cl)cc3)CC2)C(=O)c2ccccc21", "note": "[Mito10-ATO]", "values": [{"measurement": "cellular uptake / intracellular accumulation", "setting": "[1]", "value": "accumulated inside the cells with time"}, {"measurement": "inhibition of complex III-induced oxygen consumption", "setting": "[2]", "value": "potently inhibit"}, {"measurement": "IC50", "setting": "[2]; duroquinol, antimycin A-inhibitable OCR, read-out: IC50 to inhibit oxygen consumption by complex III", "value": 0.78, "unit": "µM"}, {"measurement": "effect on cell proliferation", "setting": "[3]", "value": "effective at halting cell proliferation"}]}
